This test addresses T1, human TRPV3 (Homo sapiens, UniProt Q8NET8).
T1 construct: expressed in transfected cells; host or cells: HEK293
T1 sequence (Q8NET8 1-790): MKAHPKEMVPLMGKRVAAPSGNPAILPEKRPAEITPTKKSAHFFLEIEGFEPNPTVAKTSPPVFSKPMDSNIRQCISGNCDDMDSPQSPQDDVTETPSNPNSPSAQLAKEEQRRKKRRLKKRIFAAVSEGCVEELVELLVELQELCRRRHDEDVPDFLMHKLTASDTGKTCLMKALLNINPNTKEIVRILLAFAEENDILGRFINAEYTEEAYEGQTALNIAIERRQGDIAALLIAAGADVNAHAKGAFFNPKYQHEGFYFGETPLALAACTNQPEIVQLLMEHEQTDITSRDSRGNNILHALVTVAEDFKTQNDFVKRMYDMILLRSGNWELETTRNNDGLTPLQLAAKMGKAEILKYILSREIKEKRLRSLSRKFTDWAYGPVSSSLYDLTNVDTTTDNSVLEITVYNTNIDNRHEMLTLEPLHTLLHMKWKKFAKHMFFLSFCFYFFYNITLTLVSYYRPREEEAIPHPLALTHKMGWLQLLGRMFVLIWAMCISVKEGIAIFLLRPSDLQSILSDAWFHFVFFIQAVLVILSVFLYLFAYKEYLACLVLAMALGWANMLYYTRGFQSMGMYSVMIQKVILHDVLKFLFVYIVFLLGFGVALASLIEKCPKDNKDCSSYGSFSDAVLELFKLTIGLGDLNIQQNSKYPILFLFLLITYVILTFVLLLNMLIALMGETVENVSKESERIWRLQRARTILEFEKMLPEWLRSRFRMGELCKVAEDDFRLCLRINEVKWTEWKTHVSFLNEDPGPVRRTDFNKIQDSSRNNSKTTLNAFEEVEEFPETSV
The test is described as follows: Calcium flux assay (FLIPR TETRA), recombinant HEK293 cells expressing TRPV3, 2-APB response. It is filed as cell-based. The conditions noted are these: 2-APB at its EC80. The protocol: (i) In Vitro Methods-Calcium Flux Assays:
Experiments were conducted using the FLIPR TETRA®. On the day prior to the experiment, recombinant HEK293 cells that stably express human and mouse TRPV3 were removed from tissue culture flasks and plated in growth medium at 20,000 cells/well into black-walled clear-bottom 384-well BIOCOAT™ poly-D-lysine assay plates (BD Biosciences, Bedford, Mass.) using a MULTIDROP® dispenser (ThermoScientific, Waltham, Mass.). On the day of the experiment, growth medium was removed, and the no-wash FLIPR® Calcium-4 dye (λEX=470-495 nm, λEM=515-575 nm; Molecular Devices, Sunnyvale, Calif.) was added to each well using the MULTIDROP® dispenser. Cells were incubated for 90-120 minutes in the dark. The compounds were dissolved in DMSO to prepare a 10 mM stock solution. The intensity of the fluorescence was captured and digitally transferred to an interfaced PC. The peak increase in fluorescence over baseline, measured in relative fluorescence units, was calculated and expressed as the percentage of the maximal 2-APB (2-aminoethoxyldiphenyl borate) response (in the absence of compound). The concentration of 2-APB corresponds to its EC80.
Background: Calcium flux is commonly read through the fluorescence of an indicator in the cells.

This note sets out measurements from patent publication US20180243298A1, “TRPV3 MODULATORS” (AbbVie Inc., priority 2015, published 2018).

Each structure is given as a SMILES string.

One may read the IC50 as the midpoint of a concentration-inhibition curve.

Regarding `COc1ncnc(OC)c1C(=O)Nc1nc(-c2ccc(OC(F)(F)F)cc2)cs1` [Example 93, 4,6-dimethoxy-N-{4-[4-(trifluoromethoxy)phenyl]-1,3-thiazol-2-yl}pyrimidine-5-carboxamide], the 50% inhibitory concentration (IC50) was in the range of 100 to 500 nM.

Turning to `COc1ncnc(OC)c1C(=O)Nc1nc(C(F)(F)F)c(-c2ccc(C3(C#N)CC3)cn2)s1` [Example 157, N-{5-[5-(1-cyanocyclopropyl)pyridin-2-yl]-4-(trifluoromethyl)-1,3-thiazol-2-yl}-4,6-dimethoxypyrimidine-5-carboxamide], the 50% inhibitory concentration (IC50) was in the range of 50 to 100 nM. In the case of `COc1ncnc(OC)c1C(=O)Nc1nc(C(F)(F)F)c(C=O)s1` [Example 47, N-[5-formyl-4-(trifluoromethyl)-1,3-thiazol-2-yl]-4,6-dimethoxypyrimidine-5-carboxamide] it was above 1000 nM; in that of `CCOc1ncnc(OC)c1C(=O)Nc1nc(C(F)(F)F)c(CC)s1` [Example 70, 4-ethoxy-N-[5-ethyl-4-(trifluoromethyl)-1,3-thiazol-2-yl]-6-methoxypyrimidine-5-carboxamide], below 50 nM. In the case of `COc1ncnc(OC)c1C(=O)Nc1nc(C(F)(F)F)c(CCO)s1` [Example 22, N-[5-(2-hydroxyethyl)-4-(trifluoromethyl)-1,3-thiazol-2-yl]-4,6-dimethoxypyrimidine-5-carboxamide] it was above 1000 nM; in that of `COc1ncnc(OC)c1C(=O)Nc1nc(C(F)(F)F)c(-c2ccnc3ccccc23)s1` [Example 167, 4,6-dimethoxy-N-[5-(quinolin-4-yl)-4-(trifluoromethyl)-1,3-thiazol-2-yl]pyrimidine-5-carboxamide], below 50 nM.

As for `COc1ncnc(OC)c1C(=O)Nc1nc(C(F)(F)F)c(-c2ccnn2C)s1` [Example 176, 4,6-dimethoxy-N-[5-(1-methyl-1H-pyrazol-5-yl)-4-(trifluoromethyl)-1,3-thiazol-2-yl]pyrimidine-5-carboxamide], the IC50 fell in the range of 100 to 500 nM. In the case of `COC/C=C\c1sc(NC(=O)c2c(OC)ncnc2OC)nc1C(F)(F)F` [Example 17, 4,6-dimethoxy-N-{5-[(1Z)-3-methoxyprop-1-en-1-yl]-4-(trifluoromethyl)-1,3-thiazol-2-yl}pyrimidine-5-carboxamide] it was below 50 nM; in that of `COc1ncnc(OC)c1C(=O)Nc1nc(C(F)(F)F)c(C(=O)C(C)(C)C)s1` [Example 124, N-[5-(2,2-dimethylpropanoyl)-4-(trifluoromethyl)-1,3-thiazol-2-yl]-4,6-dimethoxypyrimidine-5-carboxamide], below 50 nM; in that of `COc1ncnc(OC)c1C(=O)Nc1nc(CCc2ccc(F)cc2)cs1` [Example 107, N-{4-[2-(4-fluorophenyl)ethyl]-1,3-thiazol-2-yl}-4,6-dimethoxypyrimidine-5-carboxamide], 500 to 1000 nM. As for `COc1ncc(-c2sc(NC(=O)c3c(OC)ncnc3OC)nc2C(F)(F)F)cc1C#N` [Example 184, N-[5-(5-cyano-6-methoxypyridin-3-yl)-4-(trifluoromethyl)-1,3-thiazol-2-yl]-4,6-dimethoxypyrimidine-5-carboxamide], the IC50 is below 50 nM.

For `COc1ncnc(OC)c1C(=O)Nc1nc(C(F)(F)F)c(C2OCCCO2)s1` [Example 139, N-[5-(1,3-dioxan-2-yl)-4-(trifluoromethyl)-1,3-thiazol-2-yl]-4,6-dimethoxypyrimidine-5-carboxamide], the IC50 fell in the range of 100 to 500 nM. Then `COc1ncnc(OC)c1C(=O)Nc1nc(C(F)(F)F)c(C2(O)CCOCC2)s1` [Example 117, N-[5-(4-hydroxytetrahydro-2H-pyran-4-yl)-4-(trifluoromethyl)-1,3-thiazol-2-yl]-4,6-dimethoxypyrimidine-5-carboxamide], with above 1000 nM; and `COc1ncnc(OC)c1C(=O)Nc1nc(CC(C)(C)C)cs1` [Example 191, N-[4-(2,2-dimethylpropyl)-1,3-thiazol-2-yl]-4,6-dimethoxypyrimidine-5-carboxamide], with 50 to 100 nM; and `COc1ncnc(OC)c1C(=O)Nc1nc(-c2ccc(C(F)(F)F)cn2)c(C=O)s1` [Example 76, N-{5-formyl-4-[5-(trifluoromethyl)pyridin-2-yl]-1,3-thiazol-2-yl}-4,6-dimethoxypyrimidine-5-carboxamide], with 100 to 500 nM. In the case of `COc1ncnc(OC)c1C(=O)Nc1nc(-c2ccc(C(F)(F)F)cn2)c(C(C)=O)s1` [Example 87, N-{5-acetyl-4-[5-(trifluoromethyl)pyridin-2-yl]-1,3-thiazol-2-yl}-4,6-dimethoxypyrimidine-5-carboxamide] it was 50 to 100 nM; in that of `COc1ncnc(OC)c1C(=O)Nc1nc(-c2ccc(C(F)(F)F)cn2)c(CN2CCCC2)s1` [Example 78, 4,6-dimethoxy-N-{5-(pyrrolidin-1-ylmethyl)-4-[5-(trifluoromethyl)pyridin-2-yl]-1,3-thiazol-2-yl}pyrimidine-5-carboxamide], 100 to 500 nM; in that of `COc1ncnc(OC)c1C(=O)Nc1nc(C(F)(F)F)c(C2=CCC(C#N)CC2)s1` (stereo not drawn) [Example 164, N-[5-(4-cyanocyclohex-1-en-1-yl)-4-(trifluoromethyl)-1,3-thiazol-2-yl]-4,6-dimethoxypyrimidine-5-carboxamide], 100 to 500 nM. For the compound `COc1ncnc(OC)c1C(=O)Nc1nc(C(F)(F)F)c(-c2ccnc(C3(C#N)CC3)c2)s1` [Example 151, N-{5-[2-(1-cyanocyclopropyl)pyridin-4-yl]-4-(trifluoromethyl)-1,3-thiazol-2-yl}-4,6-dimethoxypyrimidine-5-carboxamide], the IC50 is below 50 nM.

Consider `COc1ncnc(OC)c1C(=O)Nc1nc(-c2ccc(C(F)(F)F)cn2)c(S(C)(=O)=O)s1` [Example 114, 4,6-dimethoxy-N-[5-methylsulfonyl-4-[5-(trifluoromethyl)-2-pyridyl]-1,3-thiazol-2-yl]pyrimidine-5-carboxamide], for which the half-maximal inhibitory concentration (IC50) is 100 to 500 nM. With `COc1ncnc(OC)c1C(=O)Nc1nc(C(F)(F)F)c(-c2cnc(N3CCOCC3)cn2)s1` [Example 29, 4,6-dimethoxy-N-{5-[5-(morpholin-4-yl)pyrazin-2-yl]-4-(trifluoromethyl)-1,3-thiazol-2-yl}pyrimidine-5-carboxamide], the IC50 is 500 to 1000 nM. In the case of `COc1ncnc(OC)c1C(=O)Nc1nc(C(F)(F)F)c(C2(C)OCCO2)s1` [Example 137, 4,6-dimethoxy-N-[5-(2-methyl-1,3-dioxolan-2-yl)-4-(trifluoromethyl)-1,3-thiazol-2-yl]pyrimidine-5-carboxamide] it was 50 to 100 nM; in that of `COc1ncnc(O)c1C(=O)Nc1nc(-c2ccc(C(F)(F)F)cn2)c(C(=O)N(C)C)s1` [Example 79, N-{5-(dimethylcarbamoyl)-4-[5-(trifluoromethyl)pyridin-2-yl]-1,3-thiazol-2-yl}-4-hydroxy-6-methoxypyrimidine-5-carboxamide], above 1000 nM.

On to `COc1ncnc(OC)c1C(=O)Nc1nc(C(F)(F)F)c(-c2cnc(C3CC3)nc2)s1` [Example 203, N-[5-(2-cyclopropylpyrimidin-5-yl)-4-(trifluoromethyl)-1,3-thiazol-2-yl]-4,6-dimethoxypyrimidine-5-carboxamide], for which the concentration for half-maximal inhibition (IC50) was below 50 nM. Turning to `COc1ncnc(OC)c1C(=O)Nc1nc(C(F)(F)F)c(C(=O)c2ccccn2)s1` [Example 127, 4,6-dimethoxy-N-[5-(pyridin-2-ylcarbonyl)-4-(trifluoromethyl)-1,3-thiazol-2-yl]pyrimidine-5-carboxamide], the half-inhibitory concentration (IC50) is above 1000 nM. Regarding `COc1ncnc(OC)c1C(=O)Nc1nc(C(F)(F)F)c(C2=COCCC2)s1` [Example 147, N-[5-(3,4-dihydro-2H-pyran-5-yl)-4-(trifluoromethyl)-1,3-thiazol-2-yl]-4,6-dimethoxypyrimidine-5-carboxamide], the IC50 was in the range of 50 to 100 nM. As to `COc1ncnc(OC)c1C(=O)Nc1nc(C(F)(F)F)c(-c2cnc(C#N)c(OCC3COC3)c2)s1` [Example 205, N-(5-(6-cyano-5-(oxetan-3-yl-methoxy)pyridine-3-yl)-4-(trifluoromethyl)thiazol-2-yl)-4,6-dimethoxypyrimidine-5-carboxamide], the IC50 was 100 to 500 nM.
